Results from publication PMC9502272, “A Metabolomics Approach for Predicting OATP1B-Type Transporter-Mediated Drug–Drug Interaction Liabilities” (Pharmaceutics, 2022).
Where a name gives a salt, the structure may show the parent alone.

Target: T1, Oatp1b2 (Mus musculus, UniProt Q9JJL3)
T1 sequence (Q9JJL3 1-689): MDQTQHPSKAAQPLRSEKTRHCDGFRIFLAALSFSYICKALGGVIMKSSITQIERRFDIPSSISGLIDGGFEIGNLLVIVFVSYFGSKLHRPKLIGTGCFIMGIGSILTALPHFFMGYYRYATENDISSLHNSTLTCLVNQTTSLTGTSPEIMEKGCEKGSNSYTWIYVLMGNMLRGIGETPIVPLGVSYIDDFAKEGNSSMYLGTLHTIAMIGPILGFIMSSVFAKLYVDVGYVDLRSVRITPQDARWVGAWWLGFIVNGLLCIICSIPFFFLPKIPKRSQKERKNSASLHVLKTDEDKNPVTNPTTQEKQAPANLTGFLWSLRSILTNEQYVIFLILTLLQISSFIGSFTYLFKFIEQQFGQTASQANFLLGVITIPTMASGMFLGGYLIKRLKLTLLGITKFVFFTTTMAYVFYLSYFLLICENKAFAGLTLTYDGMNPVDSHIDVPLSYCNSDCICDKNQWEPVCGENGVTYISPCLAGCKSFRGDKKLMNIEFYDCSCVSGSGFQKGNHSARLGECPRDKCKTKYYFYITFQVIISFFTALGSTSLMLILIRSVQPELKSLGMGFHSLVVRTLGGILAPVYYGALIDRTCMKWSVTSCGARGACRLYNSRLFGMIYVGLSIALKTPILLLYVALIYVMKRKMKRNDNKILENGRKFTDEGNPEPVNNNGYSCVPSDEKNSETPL
Experiment: Untargeted metabolomics of plasma from untreated wild-type and Oatp1b2(−/−) mice
Conditions: for Fold of Change KO/WT: plasma of untreated Oatp1b2-deficient (KO) vs wild-type (WT) mice, semi-quantitative, positive = higher in KO, n = 6 per group; for Mean value KO: plasma of untreated Oatp1b2-deficient mice; for Mean value KO / Mean value WT: raw area counts rescaled to median = 1; for Mean value WT: plasma of untreated wild-type mice
Method: For all experiments, age- and sex-matched mice (8–12 weeks old) were used. […] Mice with a deficiency of Oatp1b2 (Oatp1b2(−/−) mice), the single murine orthologue of OATP1B1 and OATP1B3 in humans, on a DBA/1LacJ background were kindly provided by Drs. Richard B. Kim (Western University, London, Ontario, Canada) and Jeffrey L. Stock (Pfizer, Groton, CT, USA).
Plasma samples from untreated wild-type mice and Oatp1b2(−/−) mice were analyzed for structurally named and unknown molecules using a non-targeted semi-quantitative liquid chromatography-tandem mass spectrometry (LC-MS/MS) and gas chromatography-mass spectrometry platforms (Metabolon, Durham, NC, USA). Compounds were identified by comparison with library entries of purified standards or recurrent unknown entities.

Compound	Fold of Change KO/WT	Mean value KO	Mean value WT
C[C@H](CCC(=O)O)[C@H]1CC[C@H]2[C@@H]3[C@H](O)[C@@H](O)[C@@H]4C[C@H](O)CC[C@]4(C)[C@H]3CC[C@]12C [alpha-muricholate]	45.2	2.71	.0600
NCCS(=O)O [hypotaurine]	1.28	1.14	.887
CC(CCC[C@@H](C)[C@H]1CC[C@H]2[C@@H]3[C@H](O)CC4=CC(=O)CC[C@]4(C)[C@H]3CC[C@]12C)C(=O)O (stereo partly drawn) [7-alpha-hydroxy-3-oxo-4-cholestenoate (7-Hoca)]	1.27	1.20	.944
CCCCC(=O)NCC(=O)O [valerylglycine]	1.53	1.28	.838
CCCCCCCC/C=C\CCCCCCCC(N)=O [oleamide]	1.38	1.22	.886
CCCCCCCCCCCCCCC(=O)O[C@H](CC(=O)[O-])C[N+](C)(C)C [pentadecanoylcarnitine (C15)]	1.77	1.28	.723
CC(=O)N[C@@H](CC[S+](C)[O-])C(=O)O (some centres unmarked) [N-acetylmethionine sulfoxide]	1.40	1.31	.931
O=C(O)CCCCCCCCCCCCCCCC(=O)O [heptadecanedioate (C17-DC)]	1.66	1.36	.818
C[C@H](CCC(=O)O)[C@H]1CC[C@H]2[C@@H]3CC(=O)[C@@H]4C[C@H](O)CC[C@]4(C)[C@H]3CC[C@]12C [6-oxolithocholate]	1.43	0.970	.678
Cc1ncc(CO)c(C=O)c1O [pyridoxal]	1.47	1.28	.868
CC(C)C(=O)O[C@H](CC(=O)[O-])C[N+](C)(C)C [isobutyrylcarnitine (C4)]	1.40	1.15	.817
C[C@H](CCC(=O)O)[C@H]1CC[C@H]2[C@@H]3[C@H](O)C[C@@H]4C[C@H](O)CC[C@]4(C)[C@H]3CC[C@]12C [chenodeoxycholate]	3.57	2.09	.585
CC(C)CCC[C@@H](C)[C@H]1CC[C@H]2[C@@H]3CC=C4C[C@@H](OS(=O)(=O)O)CC[C@]4(C)[C@H]3CC[C@]12C [cholesterol sulfate]	1.23	1.08	.875
Cc1c(C)c2c(c(C)c1O)CC[C@@](C)(CCC[C@H](C)CCC[C@H](C)CCCC(C)C)O2 [α-tocopherol]	2.03	1.44	.707
CC/C=C\C/C=C\C/C=C\CCCCCCCC(=O)OC[C@@H](O)COP(=O)([O-])OCC[N+](C)(C)C [1-linolenoyl-GPC (18:3)]	2.13	1.41	.661
CC(C)C(O)C(=O)O (stereo not drawn) [alpha-hydroxyisovalerate]	1.68	1.43	.850
CCCCCCCC/C=C\CCCCCCCC(=O)OC[C@@H](O)COP(=O)(O)OCCN [1-oleoyl-GPE (18:1)]	2.05	1.30	.634
taurocholenate sulfate		1.08	.838
O=C(O)CCCCCCCCCC(=O)O [undecanedioate (C11-DC)]	3.00	1.96	.654
octadecenedioylcarnitine (C18:1-DC)	12.7	2.35	.185
sphingomyelin (d18:2/14:0, d18:1/14:1)	1.36	1.14	.839
CC(=O)N[C@@H](CC(=O)c1ccccc1N)C(=O)O [N-acetylkynurenine (2)]	1.41	1.17	.827
CCCCCCCCCCCCCC(=O)O[C@H](CC(=O)[O-])C[N+](C)(C)C [myristoylcarnitine (C14)]	1.39	1.26	.904

Compound	Fold of Change KO/WT	Mean value KO	Mean value WT
O=C1CC(C(=O)O)C(C(=O)O)O1 (centres unmarked) [isocitric lactone]	1.22	1.08	.884
equol glucuronide	1.90	1.35	.709
O=C(O)[C@H]1OC(O)[C@H](O)[C@@H](O)[C@@H]1O (mixture of isomers) [glucuronate]	3.17	1.59	.500
O=S(=O)(O)Oc1ccccc1 [phenol sulfate]	1.40	1.23	.879
CCCCCCCCCCCCCCCC(N)=O [palmitamide (16:0)]	1.40	1.18	.840
CCCCCCCCCCCCCC/C=C\OC[C@@H](O)COP(=O)(O)OCCN [1-(1-enyl-palmitoyl)-GPE (P-16:0)]	1.79	1.30	.725
CCCCCCCC/C=C\CCCCCCCC(=O)OC[C@@H](O)COP(=O)([O-])OCC[N+](C)(C)C [1-oleoyl-GPC (18:1)]	1.78	1.30	.732
CCCCCCCC(=O)O[C@H](CC(=O)O)C[N+](C)(C)C [octanoylcarnitine (C8)]	1.62	1.47	.910
NCCOP(=O)(O)OCC(O)CO (centres unmarked) [glycerophosphoethanolamine]	1.57	1.31	.831
Cc1cn([C@H]2C[C@H](O)[C@@H](CO)O2)c(=O)nc1N [5-methyl-2'-deoxycytidine]	1.83	1.56	.852
CCCCCCCC/C=C\CCCCCCCC(=O)O[C@H](COC(=O)CCCCCCCCCCCCCCC)COP(=O)(O)OCCN [1-palmitoyl-2-oleoyl-GPE (16:0/18:1)]	1.46	1.24	.847
CCCCCCCCCCCCCCCCCC(N)=O [stearamide (18:0)]	1.49	1.19	.800
octadecadienedioate (C18:2-DC)	3.48	1.88	.540
heptadecenamide (17:1)	1.37	1.29	.939
C[C@H](CCC(=O)NCCS(=O)(=O)O)[C@H]1CC[C@H]2[C@@H]3CC[C@@H]4C[C@H](OS(=O)(=O)O)CC[C@]4(C)[C@H]3CC[C@]12C [taurolithocholate 3-sulfate]	2.25	0.960	.425
CCCCCCCCCCCCCCCCCC(=O)OC[C@@H](O)COP(=O)(O)OCCN [1-stearoyl-GPE (18:0)]	1.34	1.16	.867
equol sulfate	2.58	1.62	.626
CCCCCCCCCCCCCCCCCC(=O)OC[C@@H](O)COP(=O)(O)OCC(O)CO (some centres unmarked) [1-stearoyl-GPG (18:0)]	4.16	1.76	.423
C[C@H](CCC(=O)O)[C@H]1CC[C@H]2[C@@H]3C(=O)C[C@@H]4C[C@H](O)CC[C@]4(C)[C@H]3C[C@H](O)[C@]12C [7-ketodeoxycholate]	6.23	2.26	.362
N[C@@H](CCC(=O)NCC(=O)O)C(=O)O [gamma-glutamylglycine]	1.23	1.17	.950
CCCCC/C=C\C/C=C\C/C=C\C/C=C\CCCC(=O)O[C@H](CC(=O)[O-])C[N+](C)(C)C [arachidonoylcarnitine (C20:4)]	1.92	1.53	.796
CCCCC/C=C\C/C=C\CCCCCCCC(=O)OC[C@@H](O)COP(=O)([O-])OCC[N+](C)(C)C [1-linoleoyl-GPC (18:2)]	1.62	1.22	.752
O=C(O)CCCCCCCCCCC(=O)O [dodecanedioate (C12-DC)]	8.12	2.97	.366
